According to publication PMC6469167, “Cholecystokinin-2 Receptor Targeting with Novel C-terminally Stabilized HYNIC-Minigastrin Analogs Radiolabeled with Technetium-99m” (Pharmaceuticals, 2019):

Tests used:
[1] = test system: A431-CCK2R and A431-mock tumor-xenografts; parameters: species or system athymic BALB/c nude mice; details: mouse, in vivo
Description: Biodistribution studies evaluating the tumor uptake of [^99mTc]Tc-HYNIC-MGS5 and [^99mTc]Tc-HYNIC-MGS11 were performed in 7 week-old female athymic BALB/c nude mice (Charles River, Sulzfeld, Germany). To induce tumor-xenografts, mice were injected subcutaneously with 2 × 10^6 A431-CCK2R (right flank) and A431-mock cells (left flank). The tumor-xenografts were allowed to grow for 11–12 days reaching medium tumor weights of ~0.2 g. Mice were randomly divided into groups of four and injected intravenously via a lateral tail vein with 0.3 MBq of the ^99mTc-labeled HYNIC-analogs (corresponding to ~15 pmol total peptide). The groups of animals were sacrificed at 1 h and 4 h p.i., tumors and other tissues (blood, lung, heart, muscle, bone, spleen, intestine, liver, kidney, stomach and pancreas) were removed, weighed, and the radioactivity measured together with a standard in the gamma counter. Results were expressed as percentage of injected activity per gram tissue (% IA/g) and tumor-to-organ activity ratios were calculated for selected tissues. […] The radioactivity in selected organs (stomach, pancreas, liver, kidneys, A431-CCK2R and A431-mock xenograft) was additionally visualized by autoradiography using a phosphorimager (Cyclone Plus, PerkinElmer Life Sciences and Analytical Sciences, Downers Grove, Il, USA). […]

physchem = format: physicochemical
Description: The resistance against degradation of [^99mTc]Tc-HYNIC-MGS5 and [^99mTc]Tc-HYNIC-MGS11 (1000 pmol/mL, n = 2) in human serum was studied for up to 24 h. Furthermore, the radiopeptides were incubated in PBS (1000 pmol/mL, n = 1). At each time point of 1, 2, 4 and 24 h after incubation the intact radiopeptide was assessed by analytical HPLC. Serum samples were precipitated with ACN and centrifuged to collect the supernatant and diluted with water prior to radio-HPLC. […] From each phase a 75 µL sample was taken, the radioactivity measured in a 2480 Wizard^2 automatic gamma-counter (PerkinElmer Life Sciences and Analytical Sciences, Wallac Oy, Turku, Finland) and the distribution of the radiopeptides calculated. The protein binding in human serum (500 pmol/mL, n = 2) was assessed by Sephadex G-50 size-exclusion chromatography (GE Healthcare Illustra, Little Chalfont, UK) for up to 24 h.

Structure (SMILES) | tumor-to-kidney ratio [1] | logD (physchem)
CCCC[C@@H](C(=O)N[C@@H](CC(=O)O)C(=O)N[C@@H](Cc1cccc2ccccc12)C(N)=O)N(C)C(=O)[C@H](Cc1c[nH]c2ccccc12)NC(=O)CNC(=O)[C@H](Cc1ccc(O)cc1)NC(=O)[C@H](C)NC(=O)[C@@H](CCC(=O)O)NC(=O)c1ccc(NN)nc1 [[^99mTc]Tc-HYNIC-MGS5, metal not drawn] | 2.4–3.3 | -2.91 ± 0.06
CCCC[C@@H](C(=O)N[C@@H](CC(=O)O)C(=O)N(C)[C@@H](Cc1cccc2ccccc12)C(N)=O)N(C)C(=O)[C@H](Cc1c[nH]c2ccccc12)NC(=O)CNC(=O)[C@H](Cc1ccc(O)cc1)NC(=O)[C@H](C)NC(=O)[C@@H](CCC(=O)O)NC(=O)c1ccc(NN)nc1 [[^99mTc]Tc-HYNIC-MGS11, metal not drawn] | 2.0–2.6 | -2.84 ± 0.08
